Columns and labels:
Format in all cases: biochemical
[1] = target: T1, PKA (Homo sapiens, UniProt P17612); assay: PKA kinase assay (Promega); conditions: for IC50: ± S.D.
T1 construct: purchased Promega
Description: (§1) hGWLFL, 100 µl of lysate was diluted 5-fold with IP buffer and combined with 3 µl anti-Flag M2 magnetic Dynabeads [Sigma-Aldrich] overnight at 4 °C. After sequential washes with IP buffer, 1:1 mix of IP and kinase assay buffers and a final wash in kinase assay buffer, the beads were then used in the kinase assay. The reaction was stopped by adding SDS loading buffer and analysed by western blot: p-ENSA and GWL levels were detected using the anti-phospho(Ser67)-ENSA and anti-MASTL(GWL, Prestige) antibodies. Activity was measured as the p-ENSA/GWL ratio and % kinase activity was normalised to the DMSO control. All kinases assays were repeated thrice per assay condition and each point on the concentration-dependent response curves represents the mean ± 1 S.D.
(§2) PKA, ROCK1 and CDK2 kinase assays […]
(§3) Data were normalised against the AllStars negative control siRNA treated cells and values obtained from 3 – 5 biological replicates were reported as the mean ± 1 S.D.

[2] = target: T2, CDK2 (Homo sapiens, UniProt P24941); assay: CDK2 kinase assay, Histone H1 substrate, Kinase-Glo Max; conditions: for IC50: ± S.D.
T2 construct: made in house; host or cells: E. coli
Description: PKA, ROCK1 and CDK2 kinase assays
PKA and ROCK1 assays (Promega) were carried out according to the manufacturer’s protocols and CDK2 assays were carried out with Histone H1 as substrate (1 µg per 20 µl reaction) according to our Kinase-Glo Max assay. CDK2 was expressed and purified from E. coli as previously described (10). […]
as §3

[3] = target: T3, ROCK1 (Homo sapiens, UniProt Q13464); assay: ROCK1 kinase assay (Promega); conditions: for IC50: ± S.D.
T3 construct: purchased Promega
Description: as §1, §2, §3

[4] = target: T4, hGWL-KinDom (Homo sapiens, UniProt Q96GX5); assay: Inhibitor screen of pooled library with hGWL-KinDom (Kinase-Glo Max); conditions: for inhibition at 10 µM: 10 μM screening concentration, ATP concentration = 45 μM; for Rank in inhibitor screen: rank by potency in the screen
T4 construct: that encoded amino acids (aa) 1-194 + ‘RTFC’ + 740-879 of hGWL; GST (rhinovirus 3C-protease cleavable) (N, cleaved yes); made in house; host or cells: E. coli Rosetta2(DE3)
Description: Two small-molecule compound libraries, enriched with pharmacophores known to interact with the ATP-binding site of protein kinases, were screened as a pooled library in a Kinase-GloMax luminescence-kinase assay. page 4: […] Dynabeads [Sigma-Aldrich] overnight at 4 °C. After sequential washes with IP buffer, 1:1 mix of IP and kinase assay buffers and a final wash in kinase assay buffer, the beads were then used in the kinase assay. The reaction was stopped by adding SDS loading buffer and analysed by western blot: p-ENSA and GWL levels were detected using the anti-phospho([…] and […], Prestige) antibodies. Activity was measured as the […] ratio and % kinase activity was normalised to the DMSO control. All kinases assays were repeated thrice per assay condition and each point on the concentration-dependent response curves represents the mean ± 1 S.D. PKA, ROCK1 and CDK2 kinase assays PKA and ROCK1 assays (Promega) were carried out according to the manufacturer's protocols and CDK2 assays were carried out with Histone H1 as substrate (1 µg per 20 µl reaction) according to our Kinase-Glo Max assay. CDK2 was expressed and purified from E. coli as previously described (10). Inhibitor Screens with hGWL-KinDom Two small-molecule compound libraries, enriched with pharmacophores known to interact with the ATP- binding site of protein kinases, were kindly provided by GlaxoSmithKline and Roche. We used this pooled library (582 compounds, 10 µM screening concentrations) in a Kinase-Glo Max luminescence kinase assay (11, 12) as part of a two-point screen against hGWL-KinDom kinase activity, using ATP at fixed concentrations of […] With STU as positive control at a […] 4A,B). […] rate = 5.8%; Supplementary Figure 4A). Molecular Docking - AutoDock AT13148 and GKI-1/2 were docked into the ATP-binding site of the hGWL-KinDom crystal structure (where the disordered C-helix was homology-modelled) using AutoDock 4.2.6. PDB format files for the ligand and kinase domain were pre-processed using AutoDock Tools 1.5.6 as described in Mohamed, et al. (13). (Figure 4 and Supplementary Figure 6A,B). Immunofluorescence and Time-lapse video microscopy 2.5 X 105 HeLa cells were plated onto glass coverslips in a 6-well plate, or 4-well µ-slides [Ibidi GmbH] were seeded with 5 X 104 cells and then transfected with Qiagen AllStars negative control or Hs_MASTL_6 siRNAs (14) using Lipofectamine RNAiMax [ThermoFisher Scientific]. Media was exchanged with fresh media the next day. 48 hours after siRNA treatment, only cells to be used for immunofluorescence (IF) were treated with nocodazole (200 ng/mL) and DMSO or GKI-1 at the indicated concentration. For IF, cells were fixed, stained with primary mouse anti-GWL and rabbit anti-p-ENSA antibodies, secondary Alexa Fluor 647-conjugated anti- rabbit and Alexa Fluor 488-conjugated anti-mouse antibodies, DAPI and mounted onto glass microscope slides using Diamond Antifade Mountant [Molecular Probes, ThermoFisher Scientific]. Quantitation of IF images was performed using the […]-Content Screening Station [Olympus Life Science] which acquired 220, 40x images per cover slip. Data were normalised against the AllStars negative control siRNA treated cells and values obtained from three biological replicates were reported as the mean ± 1 S.D. To assist with selecting mitotic cells, ScanR imaging software was utilised to gate for mitotic cells using the circularity factor and total DAPI parameters. To produce time-lapse videos, after 48 hours and cell treatment with DMSO or compound (cells were treated with GKI-1 for 4-h before image acquisition) cells plated in 4-well µ-slides were imaged every 5 minutes for 8.5 hours on an Olympus IX73 microscope, using a 40 x 0.95NA air objective, and recorded on an Orca-Flash 4.0 CMOS camera [Hamatsu]. The computer program Fiji (http://www.fiji.sc/Fiji) was used to generate videos from image sequence TIF files. Data were normalised against the AllStars negative control siRNA treated cells and […]

T4 sequence (Q96GX5 with tags, fused parts or gaps limits assumed): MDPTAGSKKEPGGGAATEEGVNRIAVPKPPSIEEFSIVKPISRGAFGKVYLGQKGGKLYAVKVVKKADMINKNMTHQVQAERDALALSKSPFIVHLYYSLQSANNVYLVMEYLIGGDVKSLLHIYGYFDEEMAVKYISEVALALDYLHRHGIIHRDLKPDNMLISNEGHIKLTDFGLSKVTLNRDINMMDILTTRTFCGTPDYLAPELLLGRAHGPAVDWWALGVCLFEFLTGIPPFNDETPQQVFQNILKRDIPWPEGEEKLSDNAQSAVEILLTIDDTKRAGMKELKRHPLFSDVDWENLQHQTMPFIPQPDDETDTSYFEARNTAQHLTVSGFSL
T3 sequence (Q13464 whole entry): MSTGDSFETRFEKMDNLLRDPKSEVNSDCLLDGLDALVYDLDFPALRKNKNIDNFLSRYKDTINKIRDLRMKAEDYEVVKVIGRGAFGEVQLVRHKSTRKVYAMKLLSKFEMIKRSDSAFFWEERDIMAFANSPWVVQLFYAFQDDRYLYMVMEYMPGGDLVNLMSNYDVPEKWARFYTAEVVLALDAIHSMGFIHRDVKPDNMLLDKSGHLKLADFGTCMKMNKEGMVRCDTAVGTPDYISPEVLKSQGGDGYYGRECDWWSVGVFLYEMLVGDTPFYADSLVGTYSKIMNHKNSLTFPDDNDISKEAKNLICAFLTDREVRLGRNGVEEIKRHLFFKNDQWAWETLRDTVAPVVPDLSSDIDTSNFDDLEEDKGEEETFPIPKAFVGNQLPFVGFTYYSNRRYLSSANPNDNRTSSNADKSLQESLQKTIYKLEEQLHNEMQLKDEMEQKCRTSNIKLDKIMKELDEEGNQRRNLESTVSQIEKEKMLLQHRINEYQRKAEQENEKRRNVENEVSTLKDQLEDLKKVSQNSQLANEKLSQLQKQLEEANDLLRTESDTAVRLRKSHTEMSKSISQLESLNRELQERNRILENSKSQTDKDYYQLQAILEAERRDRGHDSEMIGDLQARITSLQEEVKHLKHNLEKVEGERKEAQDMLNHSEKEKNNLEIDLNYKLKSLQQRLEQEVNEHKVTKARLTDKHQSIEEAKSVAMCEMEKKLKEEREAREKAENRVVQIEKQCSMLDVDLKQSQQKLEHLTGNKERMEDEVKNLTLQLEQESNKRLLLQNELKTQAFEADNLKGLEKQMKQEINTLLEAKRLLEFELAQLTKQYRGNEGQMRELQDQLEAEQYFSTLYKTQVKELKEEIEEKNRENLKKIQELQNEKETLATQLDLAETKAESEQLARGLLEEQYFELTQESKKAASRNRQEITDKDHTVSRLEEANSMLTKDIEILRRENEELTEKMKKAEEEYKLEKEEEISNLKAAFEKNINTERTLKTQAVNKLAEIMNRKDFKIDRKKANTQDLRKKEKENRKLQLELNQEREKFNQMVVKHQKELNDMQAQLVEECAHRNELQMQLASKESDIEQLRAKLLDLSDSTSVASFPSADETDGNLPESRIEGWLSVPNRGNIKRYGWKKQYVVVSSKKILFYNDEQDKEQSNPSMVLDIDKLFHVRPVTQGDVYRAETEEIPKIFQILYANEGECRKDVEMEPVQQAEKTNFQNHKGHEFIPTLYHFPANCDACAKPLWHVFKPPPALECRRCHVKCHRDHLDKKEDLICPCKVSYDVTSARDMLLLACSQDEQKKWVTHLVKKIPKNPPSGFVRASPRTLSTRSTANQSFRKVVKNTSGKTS

selectivity for hGWL^FL over PKA [1]	IC50 [1] [µM]	inhibitory activity towards CDK2 ([2]; concentrations up to 100 μM)	IC50 [2] [µM]	selectivity for hGWL^FL over ROCK1 [3] [fold]	IC50 [3] [µM]	inhibition at 10 µM [4] [%]	Rank in inhibitor screen [4]	Structure (SMILES)
greater than 8 fold	> 40	no observable inhibitory activity	> 100	2	11.3 ± 3.4	–	–	Clc1ccc(Nc2cccc(-c3cn[nH]c3)c2)cc1 [GKI-1, N-(4-chlorophenyl)-3-(1H-pyrazol-4-yl)aniline]
–	> 100	–	0.089 ± 0.003	–	21.6 ± 5.3	30.1	8	CCN(CC)Cc1ccc(Nc2nccc(-c3cnn4ncccc34)n2)cc1 [GRI-4]
–	–	–	–	–	–	39.6	3	CN(C)CC#Cc1cccc(C(=O)c2cnn(-c3ccc(F)cc3)c2N)c1 [GRI-3]
